Experimental data from patent publication US20240116985A1, “STAPLED PEPTIDES AND METHODS THEREOF” (priority 2020, published 2024).
In brackets after ≈: the same amount, converted by molar mass. Read-outs that look alike come from different tables or passages of the source.

Experiments:
[1] = Solubility in PBS; format: physicochemical
Summary of the method: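 Read-out is the HPLC peak area of the supernatant from ultracentrifuged PBS solution, scaled against a 50 μM peptide DMSO injection; value reported as [(PBS area)/(DMSO area)]*50 uM.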

[2] = CHI Log D procedure; format: physicochemical; details: for chromatographic logD: pH 7.4, CHI Log D; for CHI Log D: pH 7.4
[3] = molecular target: T1, full-length beta-Catenin (Uniprot ID P35222) (Homo sapiens, UniProt P35222); test: Fluorescence polarization IC50 (beta-catenin / 5FAM-TCF4 10-53 competition); format: binding
T1 construct: 10 nM full-length beta-Catenin (Uniprot ID P35222)
T1 sequence (P35222 1-781): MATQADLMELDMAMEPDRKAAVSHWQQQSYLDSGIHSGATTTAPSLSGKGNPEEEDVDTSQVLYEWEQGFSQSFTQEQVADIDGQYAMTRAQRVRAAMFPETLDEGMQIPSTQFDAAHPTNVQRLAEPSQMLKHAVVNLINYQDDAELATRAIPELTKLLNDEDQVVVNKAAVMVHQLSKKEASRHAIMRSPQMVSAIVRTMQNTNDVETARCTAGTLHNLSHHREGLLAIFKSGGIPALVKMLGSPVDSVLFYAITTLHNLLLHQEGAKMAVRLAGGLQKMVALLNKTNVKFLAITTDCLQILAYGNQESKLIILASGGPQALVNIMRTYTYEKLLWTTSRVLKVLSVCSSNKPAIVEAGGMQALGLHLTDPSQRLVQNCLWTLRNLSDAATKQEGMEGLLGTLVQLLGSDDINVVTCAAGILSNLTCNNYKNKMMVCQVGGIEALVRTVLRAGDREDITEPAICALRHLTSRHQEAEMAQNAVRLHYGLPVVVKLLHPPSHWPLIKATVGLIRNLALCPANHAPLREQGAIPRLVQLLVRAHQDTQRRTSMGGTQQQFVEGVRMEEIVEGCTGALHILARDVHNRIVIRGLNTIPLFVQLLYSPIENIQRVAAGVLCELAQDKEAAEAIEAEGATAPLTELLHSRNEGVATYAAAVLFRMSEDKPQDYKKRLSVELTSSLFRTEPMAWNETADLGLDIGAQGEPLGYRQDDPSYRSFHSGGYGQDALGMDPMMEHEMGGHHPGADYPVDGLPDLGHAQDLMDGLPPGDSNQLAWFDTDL

[4] = fluorescence polarization, read-out: beta-Catenin FP IC50

Row | Compound | Solubility ([1]; Solubility (uM)) | chromatographic logD [2] | IC50 [3, 4] | Solubility [1] | CHI Log D [2] | IC50 ([3]; read-out: FP EC50) | IC50 ([3]; read-out: beta-Catenin FP IC50)
1 | CC(=O)N1CCC[C@]12CC=CCCCC1(CCCC=CCCCCCC[C@@](C)(C(=O)N[C@@H](Cc3ccccc3)C(=O)N[C@@H](Cc3csc4ccccc34)C(=O)N[C@@H](CCC(N)=O)C(=O)NC(C)(C)C(N)=O)NC(=O)[C@H](CC(N)=O)NC(=O)[C@H](Cc3ccccc3)NC(=O)[C@H](C)NC(=O)[C@H](C)NC(=O)[C@H](CCC(=O)O)NC(=O)[C@H](CC(=O)O)NC1=O)NC(=O)[C@H](CC(C)C)NC(=O)[C@H](CC(=O)O)NC2=O (stereo partly drawn) [I-737, Ac-PL3-Asp-Leu-B5-Asp-Glu-Ala-Ala-Phe-Asn-S8-Phe-BztA-Gln-Aib-NH2] | 44 µM (≈ 86 µg/mL) | 2.73 | 353 nM | – | – | – | –
2 | CC(=O)N1CCC[C@]12CC=CCCCC1(CCCC=CCCCCCC[C@@](C)(C(=O)N[C@@H](Cc3ccccc3)C(=O)N[C@@H](Cc3csc4ccccc34)C(=O)N[C@@H](Cc3c[nH]cn3)C(=O)N[C@@H](C)C(N)=O)NC(=O)[C@H](CC(N)=O)NC(=O)[C@H](Cc3ccccc3)NC(=O)[C@H](C)NC(=O)[C@H](C)NC(=O)[C@H](CCC(=O)O)NC(=O)[C@H](CC(=O)O)NC1=O)NC(=O)[C@H](CC(C)C)NC(=O)[C@H](CC(=O)O)NC2=O (stereo partly drawn) [I-738, Ac-PL3-Asp-Leu-B5-Asp-Glu-Ala-Ala-Phe-Asn-S8-Phe-BztA-His-Ala-NH2] | 41 µM (≈ 79.9 µg/mL) | 2.46 | 63 nM | – | – | – | –
3 | CC(=O)N1CCC[C@]12CC=CCCCC1(CCCC=CCCCCCC[C@@](C)(C(=O)N[C@@H](Cc3ccccc3)C(=O)N[C@@H](Cc3csc4ccccc34)C(=O)N[C@@H](Cc3c[nH]cn3)C(=O)N[C@H](C)C(N)=O)NC(=O)[C@H](CC(N)=O)NC(=O)[C@H](Cc3ccccc3)NC(=O)[C@H](C)NC(=O)[C@H](C)NC(=O)[C@H](CCC(=O)O)NC(=O)[C@H](CC(=O)O)NC1=O)NC(=O)[C@H](CC(C)C)NC(=O)[C@H](CC(=O)O)NC2=O (stereo partly drawn) [I-739, Ac-PL3-Asp-Leu-B5-Asp-Glu-Ala-Ala-Phe-Asn-S8-Phe-BztA-His-dAla-NH2] | – | 2.41 | 53 nM | 10 µM (≈ 19.5 µg/mL) | – | – | –
4 | CC[C@H](C)[C@H](NC(=O)[C@H](Cc1c[nH]cn1)NC(=O)[C@H](Cc1csc2ccccc12)NC(=O)[C@H](Cc1ccccc1)NC(=O)[C@]1(C)CCCCCCC=CCCCC2(CCCC=CC[C@]3(CCCN3C(C)=O)C(=O)N[C@@H](CC(=O)O)C(=O)N[C@@H](CC(C)C)C(=O)N2)C(=O)N[C@@H](CC(=O)O)C(=O)N[C@@H](CCC(=O)O)C(=O)N[C@@H](C)C(=O)N[C@@H](C)C(=O)N[C@@H](Cc2ccccc2)C(=O)N[C@@H](CC(N)=O)C(=O)N1)C(N)=O (stereo partly drawn) [I-741, Ac-PL3-Asp-Leu-B5-Asp-Glu-Ala-Ala-Phe-Asn-S8-Phe-BztA-His-Ile-NH2] | – | – | 226 nM | 10 µM (≈ 19.9 µg/mL) | 2.915 | 226 nM | –
5 | CC[C@@H](C)[C@@H](NC(=O)[C@H](Cc1c[nH]cn1)NC(=O)[C@H](Cc1csc2ccccc12)NC(=O)[C@H](Cc1ccccc1)NC(=O)[C@]1(C)CCCCCCC=CCCCC2(CCCC=CC[C@]3(CCCN3C(C)=O)C(=O)N[C@@H](CC(=O)O)C(=O)N[C@@H](CC(C)C)C(=O)N2)C(=O)N[C@@H](CC(=O)O)C(=O)N[C@@H](CCC(=O)O)C(=O)N[C@@H](C)C(=O)N[C@@H](C)C(=O)N[C@@H](Cc2ccccc2)C(=O)N[C@@H](CC(N)=O)C(=O)N1)C(N)=O (stereo partly drawn) [I-742, Ac-PL3-Asp-Leu-B5-Asp-Glu-Ala-Ala-Phe-Asn-S8-Phe-BztA-His-dIle-NH2] | 27 µM (≈ 53.8 µg/mL) | 2.8 | 159 nM | – | – | – | –
6 | CC(=O)N1CCC[C@]12CC=CCCCC1(CCCC=CCCCCCC[C@@](C)(C(=O)N[C@@H](Cc3ccccc3)C(=O)N[C@@H](Cc3csc4ccccc34)C(=O)N[C@@H](Cc3c[nH]cn3)C(=O)NC(C)(C)C(N)=O)NC(=O)[C@H](CC(N)=O)NC(=O)[C@H](Cc3ccccc3)NC(=O)[C@H](C)NC(=O)[C@H](C)NC(=O)[C@H](CCC(=O)O)NC(=O)[C@H](CC(=O)O)NC1=O)NC(=O)[C@H](CC(C)C)NC(=O)[C@H](CC(=O)O)NC2=O (stereo partly drawn) [I-743, Ac-PL3-Asp-Leu-B5-Asp-Glu-Ala-Ala-Phe-Asn-S8-Phe-BztA-His-Aib-NH2] | 29 µM (≈ 56.9 µg/mL) | 2.6 | 85 nM | – | – | – | –
7 | CC(=O)N1CCC[C@]12CC=CCCCC1(CCCC=CCCCCCC[C@@](C)(C(=O)N[C@@H](Cc3ccccc3)C(=O)N[C@@H](Cc3csc4ccccc34)C(=O)N[C@H](Cc3c[nH]cn3)C(N)=O)NC(=O)[C@H](CC(N)=O)NC(=O)[C@H](Cc3ccccc3)NC(=O)[C@H](C)NC(=O)[C@H](C)NC(=O)[C@H](CCC(=O)O)NC(=O)[C@H](CC(=O)O)NC1=O)NC(=O)[C@H](CC(C)C)NC(=O)[C@H](CC(=O)O)NC2=O (stereo partly drawn) [I-745, Ac-PL3-Asp-Leu-B5-Asp-Glu-Ala-Ala-Phe-Asn-S8-Phe-BztA-dHis-NH2] | – | – | 80 nM | 10 µM (≈ 18.8 µg/mL) | 2.61 | 80 nM | –
8 | CC(=O)N1CCC[C@]12CC=CCCCC1(CCCC=CCCCCCC[C@@](C)(C(=O)N[C@@H](Cc3ccccc3)C(=O)N[C@@H](Cc3csc4ccccc34)C(=O)N(C)[C@@H](Cc3cnc[nH]3)C(N)=O)NC(=O)[C@H](CC(N)=O)NC(=O)[C@H](Cc3ccccc3)NC(=O)[C@H](C)NC(=O)[C@H](C)NC(=O)[C@H](CCC(=O)O)NC(=O)[C@H](CC(=O)O)NC1=O)NC(=O)[C@H](CC(C)C)NC(=O)[C@H](CC(=O)O)NC2=O (stereo partly drawn) [I-747, Ac-PL3-Asp-Leu-B5-Asp-Glu-Ala-Ala-Phe-Asn-S8-Phe-BztA-NMeHis-NH2] | – | – | 2390 nM | 15 µM (≈ 28.4 µg/mL) | 2.492 | 2390 nM | –
9 | CC(=O)N1CCC[C@]12CC=CCCCC1(CCCC=CCCCCCC[C@@](C)(C(=O)N[C@@H](Cc3ccccc3)C(=O)N[C@@H](Cc3csc4ccccc34)C(=O)N[C@@H](C(N)=O)[C@H](C)O)NC(=O)[C@H](CC(N)=O)NC(=O)[C@H](Cc3ccccc3)NC(=O)[C@H](C)NC(=O)[C@H](C)NC(=O)[C@H](CCC(=O)O)NC(=O)[C@H](CC(=O)O)NC1=O)NC(=O)[C@H](CC(C)C)NC(=O)[C@H](CC(=O)O)NC2=O (stereo partly drawn) [I-755, Ac-PL3-Asp-Leu-B5-Asp-Glu-Ala-Ala-Phe-Asn-S8-Phe-BztA-dThr-NH2] | – | – | – | 47 µM (≈ 86.6 µg/mL) | 2.684 | 88 nM | 88 nM
10 | CC(=O)N1CCC[C@]12CC=CCCCC1(CCCC=CCCCCCC[C@@](C)(C(=O)N[C@@H](Cc3ccccc3)C(=O)N[C@@H](Cc3csc4ccccc34)C(=O)N[C@H](CO)C(N)=O)NC(=O)[C@H](CC(N)=O)NC(=O)[C@H](Cc3ccccc3)NC(=O)[C@H](C)NC(=O)[C@H](C)NC(=O)[C@H](CCC(=O)O)NC(=O)[C@H](CC(=O)O)NC1=O)NC(=O)[C@H](CC(C)C)NC(=O)[C@H](CC(=O)O)NC2=O (stereo partly drawn) [I-756, Ac-PL3-Asp-Leu-B5-Asp-Glu-Ala-Ala-Phe-Asn-S8-Phe-BztA-dSer-NH2] | 49 µM (≈ 89.6 µg/mL) | 2.61 | – | – | – | – | 56 nM
11 | CC(=O)N1CCC[C@]12CC=CCCCC1(CCCC=CCCCCCC[C@@](C)(C(=O)N[C@@H](Cc3ccccc3)C(=O)N[C@@H](Cc3csc4ccccc34)C(=O)N[C@H](CC(N)=O)C(N)=O)NC(=O)[C@H](CC(N)=O)NC(=O)[C@H](Cc3ccccc3)NC(=O)[C@H](C)NC(=O)[C@H](C)NC(=O)[C@H](CCC(=O)O)NC(=O)[C@H](CC(=O)O)NC1=O)NC(=O)[C@H](CC(C)C)NC(=O)[C@H](CC(=O)O)NC2=O (stereo partly drawn) [I-758, Ac-PL3-Asp-Leu-B5-Asp-Glu-Ala-Ala-Phe-Asn-S8-Phe-BztA-dAsn-NH2] | – | – | – | 47 µM (≈ 87.2 µg/mL) | 2.571 | 47 nM | 47 nM
12 | CC(=O)N1CCC[C@]12CC=CCCCC1(CCCC=CCCCOC(=O)N3CC[C@@](C(=O)N[C@@H](Cc4ccsc4)C(=O)N[C@@H](Cc4csc5ccccc45)C(=O)N[C@@H](CCC(N)=O)C(N)=O)(C3)NC(=O)[C@H](CCC(N)=O)NC(=O)[C@H](Cc3ccccc3)NC(=O)[C@H](C)NC(=O)[C@H](C)NC(=O)[C@H](CC(=O)O)NC(=O)[C@H](CC(=O)O)NC1=O)NC(=O)[C@H](CC(C)(C)C)NC(=O)[C@H](CC(=O)O)NC2=O (stereo partly drawn) [I-764, Ac-PL3-Asp-Npg-B5-Asp-Asp-Ala-Ala-Phe-Gln-PyrS2-3Thi-BztA-Gln-NH2] | – | – | – | 45 µM (≈ 86.9 µg/mL) | 2.212 | 14 nM | 14 nM
